# Reference: patent US10807958B2, “1,4-bis(3-aminopropyl)piperazine derivative and its use” (INSERM (Institut National de la Sante et de la Recherche …, priority 2015, dated 2020)
# Assays:
# [1] = system: endogenous Tau (MAPT) of wild-type C57/BL6 animals; assay: 2D gel electrophoresis of endogenous brain Tau in treated wild-type animals; format: in vivo, mouse; settings: wild-type mice, 1 month; for number of Tau isovariants stained with antibody S199: 5 isovariants in non-treated condition
# Source text: (§1) Wild-type C57BL/6J animals of 3 months were purchased at Charles Rivers Laboratories (France) and were allow to acclimate in the animal facility for at least one week before any treatment. Thy-Tau22 transgenic colonies (C57BL/6J genetic background) were obtained by crossing heterozygous Thy-Tau22 males with C57BL/6 WT females. […] In this model, a progressive development of NFT is observed in the hippocampus and amygdala, which parallels behavioral impairments (Schindowski et al., 2006). Furthermorever, in the hippocampus, hyper- and abnormally phosphorylated Tau species accumulate within the somato-dendritic area (Schindowski et al., 2006).
# (§2) For animal treatment, animals were randomly distributed and the compound of Formula I was given in the drinking water at final concentration of 0.5 or 1 mg/kg. Drinking bottles were changed once per week, volume consumption was measured along the treatment period. Food consumption and body weight were assessed. In wild-type animals the pilot study of drug treatment was performed for one month to establish the innocuousness of the treatment with the compound of Formula I. This was based on the physiological, social and behavioural assessments. Thy-Tau22 males were treated for 4 months starting at 3 month old. All protocols were approved by the local ethics committee (n^∘342012, CEEA).
# After behavioral assessment, blood was collected in 1.5 mL polypropylene tubes (Eppendorf, France), mice were sacrificed by cervical dislocation to avoid any modifications instrumental to anesthesia (Lefreche et al. 2012). Hippocampi and cortices were dissected and snap frozen in 1.5 mL tubes (Eppendorf). Tissue was homogenized in Tris-HCl buffer (10 mM pH 7.4) containing 320 mM sucrose, protease inhibitors (Complete mini EDTA-free, Roche) sonicated and spun at 12,000×g for 10 min at 4° C. The supernatant was recovered, protein concentration was achieved using the BCA Protein quantification assay kit (Pierce) according to the manufacturer instruction. The supernatant was further processed for biochemical analyses or kept at −80° C. For 1D or 2D gels, the same lysis buffer was used. Thus, equal amount protein in Tris buffer were added with a solution containing 7M urea, 2M thiourée with 2% SDS and sonicated at 60 Hz 30 pulses.
# Two-dimensional gel electrophoresis was performed according to the recently published procedure (Fernandez-Gomez et al., 2014). Briefly, cells were rinsed once with PBS and lysed in UTS buffer (7M urea, 2M thiourea, 2% SDS) and sonicated at 60 Hz 30 pulses. Lysate was precipitated with methanol/chloroform. 50 μg of proteins were precipitate using the chloroform/methanol procedure and the pellet was dissolved in 2D buffer [urea 7M, thiourea 2M, 4% CHAPS, and 0.6% Pharmalytes 3-10 (G&E Healthcare)]. […] The strips were layered onto a 4-12% Bis-Tris Poly-acrylamide Gel XT™ Precast Criterion (BioRad) and run with a constant tension of 100V as described for 1D SDS-PAGE. The Western blot was performed as above described for 1D SDS-PAGE and Western-blotting.
# To further determine the effect of the compound of Formula I on Tau metabolism, wild-type C57/BL6 animals were treated with 0.5 and 1 mg/Kg of the compound of Formula I for 1 month and endogenous MAPT expression was assessed by 2D gel electrophoresis. Tau protein isovariants consist of three series ranging from pI 10 to 6. The major and most basic isovariants correspond to the mouse Tau isoform comprising the sole exon 10 encoding sequence. The two other series of isoforms of molecular weight of 64 and 69 kDa are isovariants of Tau isoforms which, in addition to the exon 10, contain exon 2 or exon 2+3 encoding sequences, respectively.
# Thy-Tau22 mice = assay: Morris water maze spatial memory, Thy-Tau22 mice; format: in vivo, mouse; settings: 4 months
# Source text: as §1, §2
# Before any behavioral test, exploratory and locomotion of treated and untreated animal were evaluated in a Open field (OF) 25 cm×25 cm arena. Four acquisitions in joined arena were performed simultaneously. Each mouse was placed in the arena and allowed to explore for at least 5 min. Parameters including distance, speed, velocity were acquired by video recording using the EthoVision video tracking equipment and software (Noldus, Information Technology, Paris, France) in a dedicated room. The anxiety, which could interfere with memory test, was evaluated by the elevated plus maze (EPM). […] Locomotion, distance, speed and velocity were measured as well as the number of arm entries, time spent in the open versus closed arms, percentage of open arm entries and time per minute spent in the open arms on a total of 5 min test.
# Spatial learning and memory abilities were assessed in a standard hidden-platform acquisition and retention version of the Morris water maze task (Van der Jeugd et al., 2013). […] The time required to find the hidden rescue platform (escape latency) was used as a spatial learning index and was recorded using the Ethovision XT video tracking system (Noldus France). Swimming speed and total distance were also measured. 72 h after the acquisition phase, the hidden platform was removed and spatial memory was evaluated in a 60 s probe trial. […]
smiles,measurement,setting,value
"CC(C)CN(CCCN1CCN(CCCNc2c3c(nc4ccccc24)CCCC3)CC1)CC(C)C [compound of Formula I, N-[3-(4-{3-[Bis(2-methylpropyl)amino]propyl}piperazin-1-yl)propyl]-1,2,3,4-tetrahydroacridin-9-amine]",number of Tau isovariants stained with antibody S199,[1]; 0.5 mg/Kg,3 isovariants
same,low molecular weight Tau catabolic products (Tau-Cter antibody),"[1]; 0.5 mg/Kg, brain 2D gel, FIG. 3",increased in number and intensity
same,number of Tau isovariants stained with antibody S199,[1]; 1 mg/Kg,2 isovariants
same,distribution of Tau isovariants (Tau-Cter antibody),"[1]; 0.5 and 1 mg/Kg in drinking water, brain 2D gel, FIG. 3",did not significantly change
same,surface of the spots stained with antibody S199,"[1]; 0.5 and 1 mg/Kg, 2D gel",reduced
same,overall 2D profile of the full-length Tau isoforms,[1]; after treatment 0.5 and 1 mg/Kg,preserved
same,"probe test, spatial memory in Thy-Tau22 mice","Thy-Tau22 mice; 0.5 mg/kg, probe test 72 hours after last learning day",preserved
same,development of spatial memory impairments (ANOVA statistical analysis),"Thy-Tau22 mice; Thy-Tau22 mice, 0.5 mg/kg",protected or preserved
same,time spent in the target quadrant versus the others,"Thy-Tau22 mice; Thy-Tau22 treated, 0.5 mg/kg, untreated spent equal % of time, FIG. 4B",more time
same,learning phase (distance to reach the platform) between the animal groups,"Thy-Tau22 mice; WT and Thy-Tau22, treated or not with 0.5 mg/kg, FIG. 4A",not significantly different
